Tests used:
HSV-1 F' [1] = assay: GA added to already HSV-1 infected HEp2 and 293T cells, WB detection of HSV-1 proteins; format: cell-based; conditions: 10 μM added 2 hours after infection at 1 MOI
HSV-1 F' [2] = assay: HSV-1 stock pre-treated with GA, infection of HEp2 or 293T, western blotting of ICP27, ICP8, Us11; format: cell-based; conditions: 10 MOI stock treated 1 hour with 50 μM, diluted to 0.5 MOI / 2.5 μM; HEp2 and 293T; 5, 10 and 29 hours post-infection
[3] = tested on: human Adenovirus Type 5 (dE1/E3) containing GFP (Ad-GFP); assay: Ad-GFP infection of HEp2 cells evaluated by fluorescent microscope; format: cell-based; conditions: 10 μM, HEp2, 20 MOI, 24 hours
ZIKV (strain PRVABC59) = assay: ZIKV infection of Normal Human Astrocytes, Zika viral RNA by Taqman real-time PCR; format: cell-based, Zika virus; conditions: 5 μM to 20 μM, day 7
EBOV fusion protein = EBOV fusion protein (Zaire ebolavirus, UniProt Q05320); format: cell-based, Ebola
Chain of EBOV fusion protein (Q05320 33-501 limits assumed): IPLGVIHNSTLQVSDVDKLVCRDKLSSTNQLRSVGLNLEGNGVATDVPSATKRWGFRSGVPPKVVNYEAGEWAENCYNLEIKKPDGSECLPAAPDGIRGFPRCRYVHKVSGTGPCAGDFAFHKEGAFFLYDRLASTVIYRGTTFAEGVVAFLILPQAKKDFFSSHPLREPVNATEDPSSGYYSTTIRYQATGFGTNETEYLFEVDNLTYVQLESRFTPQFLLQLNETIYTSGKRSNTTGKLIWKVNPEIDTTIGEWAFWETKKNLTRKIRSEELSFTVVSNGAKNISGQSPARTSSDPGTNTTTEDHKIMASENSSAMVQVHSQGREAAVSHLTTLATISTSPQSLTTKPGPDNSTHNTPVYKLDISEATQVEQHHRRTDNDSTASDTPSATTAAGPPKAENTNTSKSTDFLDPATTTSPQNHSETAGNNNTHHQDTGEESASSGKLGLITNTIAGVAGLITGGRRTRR
Chain of EBOV fusion protein (Q05320 502-676 limits assumed): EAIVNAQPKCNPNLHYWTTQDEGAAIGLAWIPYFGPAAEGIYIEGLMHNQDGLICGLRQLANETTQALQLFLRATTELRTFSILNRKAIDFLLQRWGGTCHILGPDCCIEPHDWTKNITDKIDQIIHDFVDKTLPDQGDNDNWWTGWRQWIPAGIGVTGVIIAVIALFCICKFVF

HCMV-GFP = HCMV-GFP infection of HFF evaluated by fluorescent microscope; format: cell-based; conditions: 7 days
[4] = tested on: two clinical isolates of HCMV; assay: HCMV plaque assay in human foreskin fibroblasts; format: cell-based; conditions: HFF, 0-10 μM GA C15:1, 7 days
[5] = tested on: all three classes of fusion proteins, including Zika, EBOV, influenza A virus (IAV), SFV, VEEV, VSV and EBV; format: cell-based; conditions: for fusion blocked: 10 μM
HCMV = HCMV DNA copies in infected HFF by qPCR targeting the viral polymerase gene; format: cell-based; conditions: 7 dpi
[6] = tested on: HEp2, 293T, Human foreskin fibroblasts (HFF) and Normal Human Astrocytes (NHAs); assay: Toxicity of GA to the tested cells; conditions: at the active concentration (not shown)

Row | Compound | inhibition of nonenveloped Adenovirus infection [3] | inhibition of Ebola mediated cell-cell fusion (EBOV fusion protein) | effect on HCMV-GFP infection / plaque formation (HCMV-GFP; 10 μM) | fusion blocked [5] [%] | also measured
1 | CCCCCC/C=C\CCCCCCCc1cccc(O)c1C(=O)O [GA C15:1, ginkgolic acid C15:1] | did not inhibit | inhibition of Ebola mediated cell-cell fusion | only single cells were infected | 100 | HSV-1 protein synthesis in already infected cells (WB) (HSV-1 F' [1]): inhibiting the virus from that point; HSV-1 infection (ICP27, ICP8, Us11 by WB) (HSV-1 F' [2]): complete inhibition of the virus; decrease in Zika viral RNA levels (ZIKV (strain PRVABC59)): 80-90%; HCMV infectivity monitored by plaquing efficiency [4]: inhibited HCMV infectivity
2 | CCCCCCCCCCCCCc1cccc(O)c1C(=O)O [GA C13:0, Ginkgolic acid (GA) C13:0] | did not inhibit | inhibition of Ebola mediated cell-cell fusion | strong inhibitory effect on HCMV infection | 100 | –
3 | CCCCCC/C=C\CCCCCCCCCc1cccc(O)c1C(=O)O [GA C17:1, Ginkgolic Acid C 17:1] | did not inhibit | inhibition of Ebola mediated cell-cell fusion | strong inhibitory effect on HCMV infection | 100 | –
4 | Nc1nc(O)c2ncn(COC(CO)CO)c2n1 [GCV, Ganciclovir, reference compound] | – | – | – | – | effect on HCMV-GFP infection / plaque formation (HCMV-GFP; 16 μM GCV): very strong inhibition of the virus
5 | Ginkgolic acid [GA] | – | – | – | – | reduction of viral DNA (HCMV; GA added 3 hours after infection): about 80%; HCMV DNA copies, dose dependence (HCMV; different concentrations of GA): reduced in a dose dependent manner; fusion after GA was washed [5]: fusion was restored; fusion inhibition with oleic acid (OA) added together with GA [5]: abolished the inhibitory effect of GA; toxicity [6]: no toxicity at the active inhibitory range

Source: patent US20200237698A1, “Viral Inhibitor” (priority 2017, published 2020)
